The values below come from US20220280661A1, “GLUCOCORTICOID RECEPTOR RADIOLIGANDS AND METHODS FOR THEIR PREPARATION AND USE” (The Regents of the University of California, priority 2019, published 2022).

One data set deals with T1, PR (Homo sapiens, UniProt P06401).
T1 construct: MCF7 (PR, ER); endogenous in cells; host or cells: MCF7
T1 sequence (P06401 1-933): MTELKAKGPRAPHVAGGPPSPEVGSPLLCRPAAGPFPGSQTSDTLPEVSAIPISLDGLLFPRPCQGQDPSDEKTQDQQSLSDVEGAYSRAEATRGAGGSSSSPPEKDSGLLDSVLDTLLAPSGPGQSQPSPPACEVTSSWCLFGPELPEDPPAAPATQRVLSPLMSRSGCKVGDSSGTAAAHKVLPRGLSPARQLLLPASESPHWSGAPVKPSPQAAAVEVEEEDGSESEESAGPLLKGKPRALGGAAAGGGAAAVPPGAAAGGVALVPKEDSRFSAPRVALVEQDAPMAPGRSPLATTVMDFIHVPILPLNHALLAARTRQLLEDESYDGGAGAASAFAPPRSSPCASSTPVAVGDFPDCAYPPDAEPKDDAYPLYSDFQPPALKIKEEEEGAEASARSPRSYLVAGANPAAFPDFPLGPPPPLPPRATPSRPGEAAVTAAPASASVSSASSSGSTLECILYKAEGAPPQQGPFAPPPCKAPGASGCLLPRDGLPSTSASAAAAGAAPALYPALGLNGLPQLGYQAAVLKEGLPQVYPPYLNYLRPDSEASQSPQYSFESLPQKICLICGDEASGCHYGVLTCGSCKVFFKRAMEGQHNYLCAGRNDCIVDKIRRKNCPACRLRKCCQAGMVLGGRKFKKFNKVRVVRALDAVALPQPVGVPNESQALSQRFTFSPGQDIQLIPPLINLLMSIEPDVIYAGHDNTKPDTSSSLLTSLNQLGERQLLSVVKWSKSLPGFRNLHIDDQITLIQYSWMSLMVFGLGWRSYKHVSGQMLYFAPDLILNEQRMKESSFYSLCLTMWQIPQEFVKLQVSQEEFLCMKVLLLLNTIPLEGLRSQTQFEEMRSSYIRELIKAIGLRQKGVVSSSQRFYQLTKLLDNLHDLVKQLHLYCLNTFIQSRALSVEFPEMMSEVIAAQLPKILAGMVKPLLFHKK
The data set can be described thus: 3H-ligand displacement assay on cells, PR (MCF7). It counts as binding. The procedure:
The affinity of YJH08 for GR and the other type 1 subfamily 3 nuclear hormone receptors was evaluated using ^3H-ligand displacement assays on cells. The Kd for subfamily 3 class C nuclear hormone receptors was determined on cells by displacing ^3H-steroidal agonists for the respective receptor. […] The Kd was determined using the following cell lines: DU145 (GR), LNCaP-AR (AR), MCF7 (PR, ER), and HEK293 transiently overexpressing full length human MR.
The cold ligands and ^3H-steroids were co-incubated on cells in PBS at room temperature for one hour. Following incubation, the cells were washed twice with ice cold PBS and the unbound activity was retained for analysis. The cells were lysed with 1 mL of 1M NaOH and collected. Bound and unbound fractions were counted in a liquid scintillation counter and expressed as a percentage of the total activity added per equal relative number of cells. […] These experiments were performed at three concentrations of experimental ligand (1 pM, 100 nM and 10 μM), and a linear extrapolation was used to subtract the non-specific component of binding from each treatment condition. The specific binding component was plotted against the log of the competing ligand and curve fit using a non-linear regression algorithm with PRISM software.

The test system of another data set is plasma protein. The data set can be described thus: Plasma protein binding, rapid equilibrium dialysis, human plasma. The class given is in vitro ADME. The following applies: plasma (rapid equilibrium dialysis device), pH 7.4, human plasma. As for the experimental part: Plasma Protein Binding Studies. The rapid equilibrium dialysis (RED) device inserts along with a Teflon base plate (Pierce, Rockford, Ill.) were used for the binding studies. The pH of the human or mouse plasma was adjusted to 7.4 prior to the experiment. DMSO stocks (1 mM) were spiked into the plasma to make a final concentration of 2 μM. The spiked plasma solutions (300 μL) were placed into the sample chamber (indicated by the red ring); and 500 μL of PBS buffer, pH 7.4, was placed into the adjacent chamber. The plate was incubated at 37° C. on an orbital shaker (250 rpm) for 4 hours.
After 4 hours, from the RED plate, aliquots (100 μL) were removed from each side of the insert (plasma and buffer) and dispensed into the 96-well plate. Subsequently, 100 μL of blank plasma was added to the buffer samples and 100 μL of blank buffer was added to all the collected plasma samples. 300 μL of quench solution (50% acetonitrile, 50% methanol, and 0.05% formic acid, warmed up at 37° C.) containing internal standards was added to each well. Plates were sealed, vortexed, and centrifuged at 4° C. for 15 minutes at 4000 rpm. The supernatant was transferred to fresh plates for LC/MS/MS analysis. The sample were analyzed on LC/MS/MS using an AB Sciex API 4000 instrument, coupled to a Shimadzu LC-20AD LC Pump system. Analytical samples were separated using a Waters Atlantis T3 dC18 reverse phase HPLC column (20 mm×2.1 mm) at a flow rate of 0.5 mL/min. The mobile phase consisted of 0.1% formic acid in water (solvent A) and 0.1% formic acid in acetonitrile (solvent B).
The percentage of test compound bound to protein was calculated by the following equations:
% Free=(Concentration in buffer chamber/Concentration in plasma chamber)×100%
(In equilibrium dialysis free small molecules cross a membrane that holds back macromolecules.)

The next data set relates to PC3 tumors. The data set is described as follows: [18F]-YJH08 uptake in PC3 tumors implanted in the renal capsule. As to conditions: renal capsule implant, nu/nu mice. The class given is in vivo, mouse. The procedure:
For tumor imaging studies, male nu/nu mice were used for the renal capsule tumor implants. The mice were anesthetized with isofluorane (2-3%) and performed with a dorsal midline incision (0.5 cm). With pressure applied on the muscle wall, one kidney was pulled gently and carefully through the small incision. PC3 cells ([…] in 50 μL PBS) were injected under the kidney capsule, which was lifted from the kidney parenchyma. The kidney was placed into the mouse, and the incision closed with 3 surgical sutures. Carprofen (5-10 mg/kg) was administered to the mice during recovery. Mice were observed carefully over 24 hours for the signs of post-operative bleeding, pain and (or) other complications. After surgery, a 14 T Agilent small animal MRI was used to monitor the tumor progression. Animals were studied approximately 10 days post injection of tumor cells.
Lastly, digital autoradiography of the affected kidney was applied to define relative uptake of the radiotracer in the tumor and normal kidney parenchyma (FIGS. 5B and 5C). The radiotracer uptake in the tumor was qualitatively much higher than the level observed in the kidney.

The conditions of data set [1]: blood collected 30 minutes post injection.
Procedure: Serum Stability Studies. Mice were euthanized, received radiotracer (30 MBq in 100-150 μL formulation) via tail injection, and dissected at dedicated time points post injection. The blood was collected and an aliquot (50 uL) was mixed with CH3CN (50 uL). The serum proteins were precipitated out and followed by a centrifugation (10000 rpm for 5 min). The cleared supernatant (50 uL) was collected and further analyzed by RAD-iTLC.
To confirm stability, blood was collected at 30 minutes post injection, a time point after which specific binding in vivo with (±)—^18F-YJH08 occurred.

As usually defined, the Kd is the constant that tells how readily two partners part at equilibrium. Higher therefore signals lower affinity. On to `COc1cccc2c1-c1ccc3c(c1C(Cc1ccc(F)cc1)O2)C(C)=CC(C)(C)N3` (racemic) [YJH08, 5-(4-fluorobenzyl)-10-methoxy-2,2,4-trimethyl-2,5-dihydro-1H-chromeno[3,4-f]quinoline], for which the Kd at PR was 555 nM. Moreover, in the data set with plasma protein, the recovery at 4 h, 2 μM came to 97.6%.

In the case of `COc1cccc2c1-c1ccc3c(c1C(Cc1ccc([18F])cc1)O2)C(C)=CC(C)(C)N3` (racemic) [[18F]-YJH08, [^18F]-5-(4-fluorobenzyl)-10-methoxy-2,2,4-trimethyl-2,5-dihydro-1H-chromeno[3,4-f]quinoline], in the data set with PC3 tumors, the “radiotracer uptake in PC3 tumor” value is reported as roughly 3 % ID/g.

With `CC1=CC(C)(C)Nc2ccc3c(c21)C(Cc1ccc(F)cc1)Oc1cccc(O[11CH3])c1-3` (racemic) [(±)-^11C-YJH08], in data set [1], the “radiotracer stable in blood (ITLC)” value is listed as greater than 90%.
